# Source: US11840686B2, “Modulation of prekallikrein (PKK) expression” (Ionis Pharmaceuticals, Inc., priority 2013, dated 2023)
# Strand notation (5' to 3'): a small letter for the sugar, then the base; units joined by * are phosphorothioate-linked, units joined directly phosphodiester-linked; [ ] holds rarer units or linkages, { } end groups; capitals alone tell only the bases. e = 2'-O-(2-methoxyethyl) (MOE); [5mC] = 5-methylcytosine; d = 2'-deoxy (DNA)
# What was measured:
# [1] = system: basal and captopril-induced vascular permeability; assay: Evans Blue basal and captopril-induced vascular permeability in mice (Example 12); type: in vivo, mouse; conditions: for OD600 nm of Evans Blue dye, Colon / OD600 nm of Evans Blue dye, Ears / OD600 nm of Evans Blue dye, Feet / OD600 nm of Evans Blue dye, Intestine: ISIS 482584 40 mg/kg sc twice a week 4 weeks, HOE-140 30 μg ip
# Method: Basal permeability is the level of vascular permeability occurring in the tissues of naïve, untreated mice. The effect of ISIS 482584 in the prevention of vascular permeability, either basal or captopril-induced, was evaluated.
# Group 1 consisted of 8 mice and was treated with PBS administered subcutaneously twice a week for 4 weeks. No other treatment was administered to Group 1 which served as a control group to measure the basal levels of vascular permeability.
# Group 2 consisted of 8 mice and was treated with PBS administered subcutaneously twice a week for 4 weeks. At the end of the treatment period, the mice were intraperitoneally administered 20 μg of captopril. Group 2 served as the negative control group for captopril-induced vascular permeability.
# Group 3 consisted of 8 mice and was treated with PBS administered subcutaneously twice a week for 4 weeks. At the end of the treatment period, the mice were intraperitoneally administered 30 μg of HOE-140. Group 3 served as a positive control for inhibition of basal vascular permeability.
# Group 4 consisted of 8 mice and was treated with PBS administered subcutaneously twice a week for 4 weeks. At the end of the treatment period, the mice were intraperitoneally administered 20 μg of captopril. The mice were also intraperitoneally administered 30 μg of HOE-140. Group 4 served as a positive control for inhibition of captopril-induced vascular permeability.
# (§1) Group 5 consisted of 8 mice and was treated with 40 mg/kg of ISIS 482584 administered subcutaneously twice a week for 4 weeks. Group 5 served as an experimental treatment group for examining the effect of ISIS 482584 on basal vascular permeability.
# as §1, with “Group 6” for “Group 5”, “weeks. At the end of the treatment period, the mice were intraperitoneally administered 20 μg of captopril.” for “weeks.”, “on captopril-induced” for “on basal”
# All the groups were then injected with 30 mg/kg of Evans Blue solution. The mice were sacrificed 30 min after the Evans Blue solution administration and colons, feet, ears, and intestines were harvested.
# The harvested tissues from the feet, colon, intestine, and ears were placed separately in formamide solution overnight to leach out the Evans Blue dye. The formamide solution containing feet and ear tissue was heated to 55° C. and left overnight.
# [2] = system: captopril-induced vascular permeability; assay: Dose-dependent effect on captopril-induced vascular permeability, Evans Blue OD600 (Example 13); type: in vivo, mouse; conditions: for OD600 nm of Evans Blue dye, Colon / OD600 nm of Evans Blue dye, Ears / OD600 nm of Evans Blue dye, Feet / OD600 nm of Evans Blue dye, Intestine: captopril Yes, sc twice a week 3 weeks
# Method: The effect of varying doses on ISIS 482584 on captopril-induced vascular permeability was evaluated.
# Group 1 consisted of 4 mice and was treated with PBS administered subcutaneously twice a week for 3 weeks. No other treatment was administered to Group 1 which served as a control group to measure the basal levels of vascular permeability.
# Group 2 consisted of 8 mice and was treated with PBS administered subcutaneously twice a week for 3 weeks. At the end of the treatment period, the mice were intraperitoneally administered 20 μg of captopril. Group 2 served as the control group for captopril-induced vascular permeability.
# Group 3 consisted of 4 mice and was treated with PBS administered subcutaneously twice a week for 3 weeks. At the end of the treatment period, the mice were intraperitoneally administered 20 μg of captopril. The mice were also intraperitoneally administered 30 μg of Icatibant (HOE-140). […] served as a positive control for inhibition of captopril-induced vascular permeability.
# Groups 4, 5, 6, 7, 8, and 9 consisted of 8 mice each and were treated with 2.5 mg/kg, 5 mg/kg, 10 mg/kg, 20 mg/kg, 40 mg/kg, or 80 mg/kg (corresponding to 5 mg/kg, 10 mg/kg, 20 mg/kg, 40 mg/kg, 80 mg/kg, or 160 mg/kg per week), respectively of ISIS 482584 administered subcutaneously twice a week for 3 weeks. At the end of the treatment period, the mice of all the groups were intraperitoneally administered 20 μg of captopril. Groups 4-9 served as the experimental treatment groups for examining the effect of varying doses of ISIS 482584 on captopril-induced vascular permeability.
# All the groups were then injected with 30 mg/kg of Evans Blue solution in the tail vein. The mice were sacrificed 30 min after the Evans Blue solution administration and colons, feet, ears, and intestines were harvested. Blood samples were taken through cardiac puncture.
# The harvested tissues were placed in formamide solution overnight to leach out the Evans Blue dye. The formamide solution containing feet and ear tissue was heated to 55° C. and left overnight.
substance,measurement,setting,value
"ISIS 482584: 5-10-5 MOE gapmer targeting murine PKK, GGCATATTGGTTTTTGGAAT; SEQ ID NO: 2244 (antisense eG*eG*e[5mC]*eA*eT*dA*dT*dT*dG*dG*dT*dT*dT*dT*dT*eG*eG*eA*eA*eT)",basal vascular permeability,"[1]; 40 mg/kg s.c. twice a week for 4 weeks, Group 5 vs. Group 1",reduced basal vascular permeability
same,captopril-induced vascular permeability,"[1]; 40 mg/kg s.c. twice a week for 4 weeks, Group 6 vs. Group 2",reduced captopril-induced vascular permeability in most tissues
same,"OD600 nm of Evans Blue dye, Colon",[1]; basal (captopril No),0.19
same,"OD600 nm of Evans Blue dye, Ears",[1]; basal (captopril No),0.04
same,"OD600 nm of Evans Blue dye, Feet",[1]; basal (captopril No),0.07
same,"OD600 nm of Evans Blue dye, Intestine",[1]; basal (captopril No),0.22
same,"OD600 nm of Evans Blue dye, Colon",[1]; captopril Yes,0.37
same,"OD600 nm of Evans Blue dye, Ears",[1]; captopril Yes,0.00
same,"OD600 nm of Evans Blue dye, Feet",[1]; captopril Yes,0.05
same,"OD600 nm of Evans Blue dye, Intestine",[1]; captopril Yes,0.22
same,"OD600 nm of Evans Blue dye, Colon",[2]; dose 5 mg/kg,0.41
same,"OD600 nm of Evans Blue dye, Ears",[2]; dose 5 mg/kg,0.05
same,"OD600 nm of Evans Blue dye, Feet",[2]; dose 5 mg/kg,0.10
same,"OD600 nm of Evans Blue dye, Intestine",[2]; dose 5 mg/kg,0.17
same,"OD600 nm of Evans Blue dye, Colon",[2]; dose 10 mg/kg,0.41
same,"OD600 nm of Evans Blue dye, Ears",[2]; dose 10 mg/kg,0.05
same,"OD600 nm of Evans Blue dye, Feet",[2]; dose 10 mg/kg,0.10
same,"OD600 nm of Evans Blue dye, Intestine",[2]; dose 10 mg/kg,0.19
same,"OD600 nm of Evans Blue dye, Colon",[2]; dose 20 mg/kg,0.40
same,"OD600 nm of Evans Blue dye, Ears",[2]; dose 20 mg/kg,0.07
same,"OD600 nm of Evans Blue dye, Feet",[2]; dose 20 mg/kg,0.11
same,"OD600 nm of Evans Blue dye, Intestine",[2]; dose 20 mg/kg,0.20
same,"OD600 nm of Evans Blue dye, Colon",[2]; dose 40 mg/kg,0.36
same,"OD600 nm of Evans Blue dye, Ears",[2]; dose 40 mg/kg,0.05
same,"OD600 nm of Evans Blue dye, Feet",[2]; dose 40 mg/kg,0.10
same,"OD600 nm of Evans Blue dye, Intestine",[2]; dose 40 mg/kg,0.20
same,"OD600 nm of Evans Blue dye, Colon",[2]; dose 80 mg/kg,0.21
same,"OD600 nm of Evans Blue dye, Ears",[2]; dose 80 mg/kg,0.03
same,"OD600 nm of Evans Blue dye, Feet",[2]; dose 80 mg/kg,0.04
same,"OD600 nm of Evans Blue dye, Intestine",[2]; dose 80 mg/kg,0.17
same,"OD600 nm of Evans Blue dye, Colon",[2]; dose 160 mg/kg,0.26
same,"OD600 nm of Evans Blue dye, Ears",[2]; dose 160 mg/kg,0.05
same,"OD600 nm of Evans Blue dye, Feet",[2]; dose 160 mg/kg,0.10
same,"OD600 nm of Evans Blue dye, Intestine",[2]; dose 160 mg/kg,0.15
same,captopril-induced vascular permeability,"[2]; higher doses (Groups 4, 5, and 6) vs PBS control group (Group 2)",reduced levels of captopril-induced vascular permeability
